Measurements reported in patent US20240115581A1, “Combination therapy for the treatment or prevention of neurological disorders” (Norwegian University of Science and Technology (NTNU), priority 2022, published 2024).

What was measured:
mice = test: Observation of side-effects during intraventricular drug infusions; type: in vivo; conditions: intraventricular infusion: 50 mg/kg Fasudil for 14 days; 80 mg/kg Lonafarnib for 10 days
Method: Fasudil and Lonafarnib have previously been delivered using DMSO, which can damage the BBB and mitochondria as well as cause apoptosis. […] Previous research has shown that ˜98% of all small molecules are not transported across the BBB, whilst other research has shown poor drug transport from CSF to the brain. Taking drug transport across the BBB, and from CSF into the brain parenchyma into consideration, dosages of both 25, 50 and 80 mg/kg were administered in initial pilot experiments.
(§1) In these experiments, a final concentration of 50 mg/kg of Fasudil (10 mM; Selleck Chemicals, Houston, TX, United States) was infused for 14 days in mice and stored at −80° C., whilst a final concentration of 80 mg/kg of Lonafarnib (5 mM; Cayman Chemical, Ann Arbor, MI, United States) was infused for 10 days and stored −20° C. between infusions. […] The same dosages were used during combinatorial infusions of Fasudil and Lonafarnib (administered for a duration of 7 days) in mice (n=4) as the drugs target independent intracellular pathways. All dosages in ml were calculated using; dosage (mg)/concentration (mg/ml)=dose×ml) and were infused at a volume of 60 μl at a rate of 1 μl/min using saline as a control vehicle. […]

[1] = tested on: 3xTg AD mice injected with AAV-tau; test: Quantification of tau+ neurons in LEC layer II after AAV-tau injection and intraventricular infusion; type: in vivo; conditions: Lonafarnib 80 mg/kg intraventricular, 10 days; 6 months-old 3xTg AD mice; n.s.
Method: Mice were treated identically to microdialysis guide implantation surgeries, up until deriving stereotaxic coordinates. To target LEC layer II, a craniotomy was made at 0.5 mm anterior to lambda and ˜4 mm lateral (dependent on animal weight) to the midline. A Hamilton microsyringe (Neuros 32-gauge syringe, 5 μl, Hamilton company, Nevada, United States) was lowered vertically into the brain to a depth ˜3.6 mm (dependent on animal weight) from the surface, and 300-1,500 nl of viruses was injected using a microinjector (Nanoliter 2010, World Precision Instruments Inc., United States). We injected the adeno-associated virus (AAV)8 GFP-2a-P301 Ltau (with the chicken beta actin [CBA] promoter; hereafter referred to as AAV-tau). In AAV-tau the short 2A peptide cleaves GFP and human tau during translation at the ribosome. […]
(§2) In these experiments, a final concentration of 50 mg/kg of Fasudil (10 mM; Selleck Chemicals, Houston, TX, United States) was infused for 14 days in mice and stored at −80° C., whilst a final concentration of 80 mg/kg of Lonafarnib (5 mM; Cayman Chemical, Ann Arbor, MI, United States) was infused for 10 days and stored −20° C. between infusions. […] All dosages in ml were calculated using; dosage (mg)/concentration (mg/ml)=dose×ml) and were infused at a volume of 60 μl at a rate of 1 μl/min using saline as a control vehicle. […]

3xTg AD mice [2] = test: LAMP1 immunolabelling in dSub; type: in vivo; conditions: Lonafarnib infused (n=4) vs vehicle (n=8)
From the text: We immunolabelled for lysosomal associated membrane protein 1 (LAMP1) in 3xTg AD mice.

3xTg AD mice [3] = test: Quantification of intraneuronal Aβ (Aβ+ neurons) in dSub after drug infusions; type: in vivo; conditions: Lonafarnib 80 mg/kg intraventricular, 10 days; young 3xTg AD mice
Method: as §1
Effect size (Cohen's D) was calculated based on initial experiments between animals infused with Fasudil and animals infused with a vehicle, and the resulting effects on intraneuronal Aβ in dSub. Based on each group consisting of n=2 animals, an effect size of 0.75 was calculated (0.8 is considered a large effect size). […] Behavioral performance in the morphed environments of the context-dependent spatial memory task was calculated as follows: dig in square-consistent location=1, dig in circle-consistent location=0, dig in any other location=0.5. […]

[4] = cited from earlier work
3xTg AD mice [5] = test: Multiplex ELISA of Aβ40, Aβ42, p-tau and t-tau in CSF sampled by push-pull microdialysis; type: in vivo; conditions: Lonafarnib, day 10 of infusion, average across younger (injected with AAV-tau) and older mice, vs vehicle
Method: Animals were implanted with microdialysis guide cannulas 2 months following injections. Push-pull microdialysis apparatus and sampling Push-pull microdialysis was conducted as previously described (Bjorkli et al., 2021 supra). A refrigerated fraction collector (CMA 470) was set to 6° C. for the storage of collected CSF in 300 μl low-retention polypropylene plastic vials (Harvard Apparatus, Cambridge, MA, United States). Fluorinated ethylene propylene (FEP) peristaltic tubing (CMA Microdialysis AB, Kista, Sweden) was placed inside each plastic vial for collection and connected to the cassette of the peristaltic roller pump (Reglo ICC Digital). This peristaltic FEP tubing was connected to the outlet side of microdialysis probes (β-irrigated 2 mDa microdialysis probe; CMA 7; CMA Microdialysis AB, Kista, Sweden) with a polyethersulfone 2 mm membrane with tubing adapters bathed in 75% ethanol. FEP tubing (CMA Microdialysis AB, Kista, Sweden) was connected to each microsyringe. The FEP tubing was then connected to the inlet part of the microdialysis probes. Transparent cages were prepared with 1.5 cm of bedding, filled water bottles, and treats. Saline or drugs were loaded inside a gastight microsyringe (CMA Microdialysis AB, Kista, Sweden), which was placed into a syringe pump (CMA 4004). The “dead volume” of the FEP outlet tubing ([…]) was calculated. 100 cm of FEP outlet tubing was used, and therefore the first […] sampled from each animal were discarded. Prior to inserting the microdialysis probes into the guide cannula, the probe was conditioned in 75% ethanol for better recovery of analytes. At the conclusion of microdialyte sampling, the vials of 60 μl CSF were centrifuged and kept at −80° C. until the samples were analyzed with multiplex ELISA.
as §2
The MILLIPLEX® MAP human Aβ and tau magnetic bead panel 4-plex ELISA kit (Millipore, Burlington, MA, United States) and the Bio-Plex 200 System instrument (Biorad, Hercules, CA, United States) were used to assess simultaneously the concentrations of Aβ40, Aβ42, total tau (t-tau), and phosphorylated tau at Thr181 (p-tau) in CSF samples. The samples were undiluted and analyzed in duplicates.

3xTg AD mice [6] = test: Quantification of amyloid plaques (number, size) in dSub after intraventricular infusions; type: in vivo; conditions: Lonafarnib 80 mg/kg intraventricular, 10 days, 14 months-old 3xTg AD mice
Method: Mice were administered a lethal dose of sodium pentobarbital (100 mg/ml; Apotekforeningen, Oslo, Norway) and transcardially perfused with Ringer's solution followed by paraformaldehyde (PFA, 4%; Sigma-Aldrich) in 125 mM phosphate buffer (PB). Brains were extracted and fixed for a minimum of 24 h in PFA at 4° C. and transferred to a 2% DMSO solution prepared in PB for 24 h at 4° C. Brains were sectioned coronally at 40 μm on a freezing-sliding microtome (Microm HM430, ThermoFisher Scientific, Waltham, MA, United States).
An incision was made in the non-implanted hemisphere for visualization of the control hemisphere. Immunohistochemical processing was conducted on the tissue. […]

What does the source list for `NC(=O)N1CCC(CC(=O)N2CCC([C@H]3c4ncc(Br)cc4CCc4cc(Cl)cc(Br)c43)CC2)CC1` [Lonafarnib, 4-(2-{4-[(11R)-3,10-dibromo-8-chloro-6,11-dihydro-5H-benzo[5,6]cyclohepta[1,2-b]pyridin-11-yl]piperidin-1-yl}-2-oxoethyl)piperidine-1-carboxamide]?
observable side-effects (mice): no observable side-effects; number of tau+ neurons in LEC following injection of AAV-tau [1]: moderately reduced; LAMP1+ neurons in dSub compared to vehicle infused mice (3xTg AD mice [2]): more prominent; number of Aβ+ neurons in dSub (3xTg AD mice [3]): did not affect; solubility in aqueous buffers [4]: sparingly soluble; CSF AB42 levels (3xTg AD mice [5]; n.s.): moderately reduced; CSF p-tau levels (3xTg AD mice [5]; n.s.): moderately reduced; CSF Aβ40 levels (3xTg AD mice [5]; p<0.01): effectively reduced; CSF t-tau levels (3xTg AD mice [5]; p<0.01): effectively reduced; size of amyloid plaques in dSub compared to vehicle (3xTg AD mice [6]; n.s.): moderately increased; number of dense-core amyloid plaques (overlapping with MC1 immunolabelling) in dSub compared to vehicle infused mice (3xTg AD mice [6]; p=0.0017): effectively reduced
